The results in this text go back to patent US20240199555A1, “APPLICATIONS OF BIASED LIGANDS OF THE SEROTONIN 5-HT7 RECEPTOR FOR THE TREATMENT OF PAIN, MULTIPLE SCLEROSIS AND THE CONTROL OF THERMOREGULATION” (Centre National de la Recherche Scientifique, priority 2021, published 2024).

Series [1] can be described thus: Pharmacokinetic study in plasma and brain. Particulars: 5 mg/kg, subcutaneous. In kind it is in vivo, C57BL/6 mice. As to the method: FIG. 20: Pharmacokinetic study of E55888 and Serodolin. Concentration-time profile of E55888 (reference agonist) and Serodolin in plasma (A) and brain (B) following subcutaneous injection of a unique dose 5 mg/kg of each compound in C57BL/6 mice. Data represent the mean concentration±SEM of n=4 each time point.
The pharmacokinetic study was undertaken to evaluate and compare the quantity of Serodolin and E55888 in plasma and brain samples from C57BL/6 mice (Janvier, Le Genest France) at several time points. Seven weeks old C57BL/6 mice (n=4 animals per group) received by subcutaneous injection a unique dose (5 mg/kg) of Serodolin or E55888 (U103013S, Achemblock). Control group received vehicle (solution of 20% DMSO and 5% Tween 80 diluted in NaCl). […] Blank vehicle mouse brains homogenates and plasma were used to established standard curves of Serodolin or E55888. […] Study samples, brains homogenates and plasma, were prepared for protein precipitation by adding 85 μL of acetonitrile+5-CT to 20 μL of samples. LC-HRMS analysis for PK studies were performed on a maXis Q-TOF mass spectrometer (Bruker, Bremen, Germany) coupled to an U3000 RSLC UHPLC system (Dionex, Germering, Germany). Separation was obtained using an Acquity UPLC BEH C18 column (2.1×50 mm; 1.7 μm) (Waters, Saint-Quentin-en-Yvelines, France) thermostated at 40° C. with a gradient of water (solvent A) and acetonitrile (solvent B), both acidified with 0.1% formic acid at 500 μL/min. […] The samples were randomized prior analysis; 1.25 μL were injected for plasma and 8 μL for brains. […] Area were integrated from extracted ion chromatograms (EIC) of [M+H]+ ions using QuantAnalysis 4.4 software (Bruker) with a tolerance of ±0.005 u.
The pharmacokinetics profile of both compounds were evaluated. The inventors used liquid chromatography tandem mass spectrometry (UPLC-MS/MS) method to perform PK study and measure Serodolin vs E55888 levels in vivo.

In the next series the target is human 5-HT7a receptor (Homo sapiens (Human), UniProt P34969). The experiment in a line: Radioligand binding competition, filtration binding assay, 5-HT7a. Particulars: affinity on 5-HT7 receptor, table of new compounds. As to the method:
(§1) FIG. 14: Testing of 8 molecules for radioligand binding competition activity on recombinant human 5-HT1A, 5-HT2A, 5-HT2Cedited, 5-HT6, 5-HT7 and D2(long) receptors using filtration binding assays.
(§2) Radioligand Binding experiments were conducted with Epics Therapeutics membrane preparations. Receptor accession numbers, cellular background and reference compounds are shown in this table.
Reference values thus obtained for the test were compared to historical values obtained from the same receptor and used to validate the experimental session. For replicate determinations, the maximum variability tolerated in the test was of +/−20% around the average of the replicates.
(§3) Dose-response data from test compounds were analyzed with XLfit (IDBS) software using nonlinear regression applied to a sigmoidal dose-response model and the following equation: • XL Fit fit Model 203: 4 Parameter Logistic Model • A: Bottom • B: TOP • C: LogEC50 • D: Hill

The subject of series [2] is mice. The experiment in a line: Tail immersion test (50° C.). The class given is in vivo. Particulars: 5-HT7R KO mice, subcutaneous. As to the method:
(A) Experimental protocol summary used. (B) Mice were subcutaneously injected with two different doses of the 5-HT7 receptor agonist Serodolin, 1 mg/kg or 5 mg/kg and 10 min later their tail extremity was immersed in water heated to 50 degrees. […] The effect of injections (Serodolin or E55888) was evaluated at TO, 30 min and 60 min corresponding to 10, 40 and 70 min after compound injections. […] Their tail extremity was immersed in water heated to 50 degrees at TO (E) or 30 min later (F) corresponding to 10 and 40 min after agonist injections. […] Statistical analysis was done using Tukey's multiple comparison test.
Tail immersion test. Nociception was assessed with the tail immersion test, 10 min and 40 min after E55888 (5 mg/kg) or Serodolin (5 mg/kg) tail subcutaneous injections, in the water heated to 50° C. Vehicle (20% DMSO, 5% Tween 80 diluted in PBS solution) was used as a control group. These different groups were intraperitoneally injected (+) or not (−) with the 5-HT7R antagonist SB269960 (5 mg/kg) 10 min before the ligand injection. The tail withdrawal latency (s) was measured for each animal.

Series [3] concerns mice. The experiment in a line: CFA-induced mechanical hypersensitivity, Von Frey filament test. To be noted: 5 mg/kg, s.c., 30 minutes. In kind it is in vivo.
Description: Mechanical hypersensitivity was evaluated after CFA intraplantar injection by using the Von Frey test. […] Mechanical hypersensitivity was performed 24 hrs later (pre-treatment) CFA intraplantar injection into the left hind paw (ipsilateral paw). […] The ligand effects (E55888 or Serodolin) were evaluated 30 min and 24 hrs after in the ipsilateral paw. Data are means±SEM of values obtained in 2 independent experiments (n=8 to 10 per group). ****p<0.0001 ***p<0.001 **p<0.01 *p<0.05. Statistical analysis was done using Kruskal Wallis test.
Von Frey filament test. Before inducing peripheral inflammation, each animal was tested on the left hind paw with Von Frey Filament to determine its basal sensibility level. Then, peripheral inflammation was induced by intraplantar injection of Complete Freund's Adjuvant (CFA-10 μL) (F5881, Sigma) in the left hind paw (ipsilateral paw) and mechanical allodynia was measure (pre-treatment). Mice were divided into two groups, one with E55888 (5 mg/kg) and the other with Serodolin (5 mg/kg) subcutaneous injections in the ipsilateral paw. Both in absence (−) or in presence (+) of the 5-HT7R antagonist SB269960 (5 mg/kg), intraperitoneally, 20 min before the agonist injections (8-10 mice per group).
The inventors wanted to evaluate the effect of Serodolin on mechanical hypersensitivity in comparison with E-55888 after CFA injection.
The next series concerns the target human 5-HT1A receptor (Homo sapiens (Human), UniProt P08908). The experiment in a line: Radioligand binding competition, 5-HT1A. Particulars: selectivity panel. As to the method:
as §1, §2
(§4) The new compounds have been tested by radioligand binding competition activity at the human 5-HT1A (FAST-0500B), 5-HT2A (FAST-0505B), 5-HT2Cedited (FAST-0507B), 5-HT6 (FAST-0509B), 5-HT7a (FAST-05111B) and D2(long) (FAST-0101B) receptors at seven (7) concentrations, in duplicate. […] Reference values thus obtained for the test were compared to historical values obtained from the same receptor and used to validate the experimental session. For replicate determinations, the maximum variability tolerated in the test was of +/−20% around the average of the replicates.
as §3

The target in series [4] is human 5-HT2Cedited receptor (Homo sapiens, UniProt P28335). The experiment in a line: Radioligand binding competition, 5-HT2Cedited. Particulars: selectivity panel. Here is the method: as §1, §2, §4, §3
Series [5] deals with T1, h5-HT7R (Homo sapiens (Human), UniProt P34969). As to the kind of experiment: cAMP accumulation (LANCE cAMP detection kit) in HEK-293 cells stably expressing h5-HT7R. In kind it is cell-based. To be noted: tested alone. Here is the method:
(B) HEK-293 cells stably expressing h5-HT7R were stimulated with 10 nM of 5-CT and increasing concentrations of products for one hour. After cell lysis, cAMP production was quantified by a LANCE cAMP detection kit (Perkin Elmer). […] Data points represent the means±SEM from three independent experiments performed in triplicate. The EC50 and IC50 for each drug was determined using GraphPad Prism software.
cAMP accumulation was measured with a LANCE™ cAMP detection kit (Perkin-Elmer Life Sciences, Boston, MA, USA). 12 h before experiment cells were starved. Forty-eight h after transfection, cells were harvested in Hank's balanced salt solution (HBSS) containing 5 mM HEPES, 1 mM isobutylmethylxanthine (IBMX) and 0.1% BSA, PH 7.4. After centrifugation (1000×g, 5 min), cells were resuspended in the same buffer (2×10^6 per ml). The ALEXA™ fluor 647 anti-cAMP antibody solution (1 μl) was added to the cell suspension (100 μl) and 5 μl aliquots of the mixture were dispensed in white 384-well microtiter plates (Optiplate, Perkin Elmer). The cells were then stimulated with different drugs. After 1 h incubation at room temperature in the dark, lysis buffer (0.35% Triton X-100, 10 mM CaCl2, 50 mM HEPES) containing LANCE EU-W8044 labeled streptavidin and biotinylated-cAMP was added to the cells (10 μL per well). After 2 h incubation at room temperature in the dark, the plates were read on a VictorV™ microplate reader (Perkin-Elmer Life Sciences). Concentration/response curves were analyzed using Prism 4 software.
HEK-293 fibroblast stably expressing 5-HT7 receptor were used to compare the effect of different 5-HT7R ligands on the classical Gαs-mediated activation of AC pathway. It was decided to evaluate the lead compounds from two series of ligands, Serodolin and MOA-51 (FIG. 1A).

The target of a further series is human 5-HT2A receptor (Homo sapiens (Human), UniProt P28223). The experiment in a line: Radioligand binding competition, 5-HT2A. Particulars: selectivity panel. Here is the method: as §1, §2, §4, §3
In series [6] the target is T1, h5-HT7R. The experiment in a line: AlphaScreen SureFire phospho-ERK and phospho-c-SRC assays. In kind it is cell-based. To be noted: pretreatment of cells, Serodolin stimulation. As to the method:
FIG. 7: Serodolin induced ERK phosphorylation is dependent on c-SRC activation and requires proline-rich regions on 5-HT7R. […] Cells were lysed, and western blot analysis was performed. (B) The phosphorylation of ERK1/2 as well as phosphorylation of c-SRC were quantified on the same cell lysates using the AlphaScreen assays. Means±SEM of values from three experiments performed in triplicate. (C) The PXXP motif in the C-terminal tail of 5-HT7R has been mutated as described in the upper panel. The corresponding constructs encoding HA-tagged 5-HT7 receptor were transfected in HEK-293 cells as indicated (MutT1, mutT2 and mutT3), then the effect of 5-CT and Serodolin have been evaluated on ERK1/2 and c-SRC activation by Western blot analysis. Representative immunoblots of three independent experiments are illustrated.
The AlphaScreen SureFire phospho-ERK and phosphor-c-SRC assays (PerkinElmer) were used to quantify pERK1/2 and pc-SRC from HEK-293 cell lysates according to the manufacturer's instructions.
(2018) V1b vasopressin receptor trafficking and signaling: Role of arrestins, G proteins and Src kinase. Traffic 19, 58-82; Rey, A., Manen, D., Rizzoli, R., Caverzasio, J., and Ferrari, S. L. (2006) Proline-rich motifs in the parathyroid hormone (PTH)/PTH-related protein receptor C terminus mediate scaffolding of c-Src with beta-arrestin2 for ERK1/2 activation. J Biol Chem 281, 38181-38188). […] To determine whether one of these mechanisms was required for Serodolin-induced ERK phosphorylation, the inventors first evaluated the sensitivity of this activation to the c-SRC-specific tyrosine kinase inhibitor PP2. […]

T1 sequence (P34969 1-432): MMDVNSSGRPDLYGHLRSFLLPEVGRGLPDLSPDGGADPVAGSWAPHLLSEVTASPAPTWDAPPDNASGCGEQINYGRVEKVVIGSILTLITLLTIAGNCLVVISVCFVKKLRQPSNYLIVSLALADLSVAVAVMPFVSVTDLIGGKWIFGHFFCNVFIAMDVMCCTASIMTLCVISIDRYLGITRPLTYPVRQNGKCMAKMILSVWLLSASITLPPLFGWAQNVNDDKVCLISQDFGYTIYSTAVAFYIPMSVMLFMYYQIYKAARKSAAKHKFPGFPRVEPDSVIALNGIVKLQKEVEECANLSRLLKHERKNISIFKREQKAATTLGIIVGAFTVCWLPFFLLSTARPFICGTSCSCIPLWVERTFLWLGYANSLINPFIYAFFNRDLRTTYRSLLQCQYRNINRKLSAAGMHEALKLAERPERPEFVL
Sequence of human 5-HT7a receptor (P34969 other isoform, or with tags, fused parts or gaps): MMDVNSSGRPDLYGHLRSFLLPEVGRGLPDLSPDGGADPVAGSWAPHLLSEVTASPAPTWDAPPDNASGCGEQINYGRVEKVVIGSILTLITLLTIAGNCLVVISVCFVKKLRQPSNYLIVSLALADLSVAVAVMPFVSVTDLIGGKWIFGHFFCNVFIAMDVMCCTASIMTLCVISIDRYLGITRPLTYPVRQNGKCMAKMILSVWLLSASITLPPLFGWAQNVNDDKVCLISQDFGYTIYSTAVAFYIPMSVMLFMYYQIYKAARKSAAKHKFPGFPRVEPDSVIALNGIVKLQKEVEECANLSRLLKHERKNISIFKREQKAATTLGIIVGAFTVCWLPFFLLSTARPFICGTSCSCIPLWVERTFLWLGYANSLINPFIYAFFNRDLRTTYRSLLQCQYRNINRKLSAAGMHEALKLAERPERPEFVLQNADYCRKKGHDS
Sequence of human 5-HT2Cedited receptor (P28335 33-458 limits assumed): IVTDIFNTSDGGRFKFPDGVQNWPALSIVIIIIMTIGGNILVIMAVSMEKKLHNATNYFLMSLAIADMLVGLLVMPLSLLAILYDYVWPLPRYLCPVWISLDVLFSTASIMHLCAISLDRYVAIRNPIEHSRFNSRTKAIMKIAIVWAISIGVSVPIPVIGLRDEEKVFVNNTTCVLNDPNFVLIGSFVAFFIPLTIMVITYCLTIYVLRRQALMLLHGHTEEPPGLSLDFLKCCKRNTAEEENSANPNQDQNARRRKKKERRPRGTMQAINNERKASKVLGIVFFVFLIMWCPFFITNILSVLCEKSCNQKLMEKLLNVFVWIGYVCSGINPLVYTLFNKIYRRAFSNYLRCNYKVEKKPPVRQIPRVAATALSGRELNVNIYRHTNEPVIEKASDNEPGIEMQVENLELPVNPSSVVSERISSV
Sequence of human 5-HT1A receptor (P08908 whole entry): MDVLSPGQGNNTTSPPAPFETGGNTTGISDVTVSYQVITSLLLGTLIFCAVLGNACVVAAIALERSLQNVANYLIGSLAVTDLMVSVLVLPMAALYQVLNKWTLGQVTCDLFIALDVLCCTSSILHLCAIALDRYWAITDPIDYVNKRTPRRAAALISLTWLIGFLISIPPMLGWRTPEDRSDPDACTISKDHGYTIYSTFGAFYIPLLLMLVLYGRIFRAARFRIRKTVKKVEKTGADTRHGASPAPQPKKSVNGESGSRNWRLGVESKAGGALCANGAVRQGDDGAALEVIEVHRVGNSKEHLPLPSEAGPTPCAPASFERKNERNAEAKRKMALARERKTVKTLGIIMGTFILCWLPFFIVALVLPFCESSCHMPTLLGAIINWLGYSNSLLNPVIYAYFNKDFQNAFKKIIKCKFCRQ
Sequence of human 5-HT2A receptor (P28223 whole entry): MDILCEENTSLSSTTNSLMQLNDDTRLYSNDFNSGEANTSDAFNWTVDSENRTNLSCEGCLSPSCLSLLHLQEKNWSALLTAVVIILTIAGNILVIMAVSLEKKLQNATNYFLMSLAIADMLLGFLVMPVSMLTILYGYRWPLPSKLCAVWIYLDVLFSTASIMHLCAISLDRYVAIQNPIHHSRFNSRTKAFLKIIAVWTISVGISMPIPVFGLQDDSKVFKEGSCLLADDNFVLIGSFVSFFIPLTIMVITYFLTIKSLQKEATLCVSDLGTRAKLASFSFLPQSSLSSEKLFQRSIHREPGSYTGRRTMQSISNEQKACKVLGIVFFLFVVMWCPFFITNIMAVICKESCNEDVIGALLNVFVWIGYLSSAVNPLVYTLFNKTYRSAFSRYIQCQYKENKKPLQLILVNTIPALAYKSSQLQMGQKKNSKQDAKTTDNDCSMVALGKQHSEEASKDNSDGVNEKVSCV

In the case of `Cc1nn(C)c(C)c1-c1cccc(CCN(C)C)c1` [E55888, reference compound], the “passage of the brain blood barrier” value in [1] was “ability to pass the brain blood barrier”. For the same compound, the “time of maximum of detection” value in series [1] (both in plasma and brain) fell in the range of 15 to 30 min. Moreover, in [1] (brain), the “maximum of detection in brain” value turned out to be 1.4 ± 0.2 µg/mL. In addition, in [1] (plasma), the “maximum of detection in plasma” value is 6.1 ± 0.5 µg/mL. In addition, in series [1] (plasma and brain), the “time after which eliminated / undetectable” value came to 120 min. Besides, at human 5-HT7a receptor, the IC50 worked out at 2.68 nM and the inhibition constant Ki is 1.88 nM. The “anti-nociceptive effect in 5-HT7R KO mice” value in the series with mice [2] is “did not exert any anti-nociceptive effect”. Besides, the “CFA-induced mechanical hypersensitivity, 30 minutes after administration” value with mice [3] is reported as “reversed the CFA-induced mechanical hypersensitivity”.

`O=C(c1ccc(F)cc1)C1CCN(CCCCn2c(=O)[nH]c3ccccc32)CC1` [MOA51]: the IC50 at human 5-HT7a receptor was found to be 0.29 nM; on human 5-HT1A receptor (read-out: RLB 5-HT1A IC50) it was 885 nM; in series [4] (read-out: RLB 5-HT2Cedited IC50), 699 nM; on human 5-HT2A receptor (read-out: RLB 5-HT2A IC50), 3.29 nM. For the same compound, the inhibition constant (Ki) on human 5-HT7a receptor came out at 0.2 nM; on human 5-HT1A receptor (read-out: RLB 5-HT1A Ki), 442 nM; in series [4] (read-out: RLB 5-HT2Cedited Ki) it was 115 nM; on human 5-HT2A receptor (read-out: RLB 5-HT2A Ki), 0.54 nM. Moreover, at h5-HT7R [5], the “inhibition of cAMP production when tested alone (inverse agonist effect)” value is “around 75%”.

With `CC(C)(C)n1nc(-c2ccc(Cl)cc2)c2c(N)ncnc21` [PP2], on h5-HT7R [6], the “block of Serodolin-induced ERK phosphorylation” value was 99% and the “block of Serodolin-induced c-SRC phosphorylation” value was determined as 100%.

Turning to `Nc1ncnc2c1cnn2-c1ccccc1` [PP3], at h5-HT7R [6], the “block of Serodolin-induced ERK phosphorylation” value is “inactive”.
